# Results taken from patent US20160215111A1, “MATERIALS AND METHODS” (THE UNIVERSITY OF SYDNEY, priority 2013, published 2016).
# Tests used:
# [1] = tested on: rabbit polyclonal antibody with specificity against the C-terminal RKRK motif of tropoelastin; assay: C-terminal ELISA detection of RKRK exposure; type: binding; details: for C-terminal ELISA detection: tissue culture plastic, increasing coating concentration (FIG. 13)
# Excerpt: Rabbit polyclonal antibodies against exon 36 were raised by Biomatik. A peptide corresponding to exon 36 ([…]) conjugated to Keyhole Limpet Hemocyanin was used to immunize New Zealand rabbits. Exon 36 specific antibodies were purified from the resulting immune serum by affinity chromatography using the immunogen peptide. […] Therefore this protocol produced a rabbit polyclonal antibody with specificity against the C-terminal RKRK motif of tropoelastin.
# Untreated or PIII treated polystyrene was incubated in peptide 36 containing buffer (10 mM PO4, 150 mM NaCl) of increasing pH for 1 hour at room temperature. After peptide immobilization the samples were washed 3× with PBS to remove non-bound peptide. Background antibody binding was blocked with 3% (w/v) BSA for 1 hour at room temperature. The primary rabbit-anti-C-terminal antibody was diluted to 1:5000 and added to the samples for 1 hour at room temperature. Non-bound antibody was removed with 3×PBS washes then detected with 1:10,000 diluted goat anti-rabbit whole IgG-HRP conjugated secondary antibody for 1 hour at room temperature. The secondary antibody was removed, the samples washed 3×PBS washes and then transferred to fresh tissue culture plates. ABTS solution (40 mM ABTS, 0.1 mM NaOAc, 0.05M NaH2PO4, 0.01% H2O2, pH 5) was added for 30 min and the absorbance read at 405 nm.
# Human dermal fibroblasts [2] = assay: Cell attachment of human dermal fibroblasts to peptide coated polymer samples (crystal violet); type: cell-based; details: for % cell attachment / maximal % cell attachment: BSA blocked; for cell binding activity after dry autoclaving / cell binding activity after heating: coated at pH 10, 0 mM NaCl; for cell binding activity after dry autoclaving: 120° C., 20 min (FIG. 10); for maximal % cell attachment: coating concentration 50 μM
# Experimental: PFTE and polystyrene were obtained from Goodfellow. PEEK was sourced from Vitrex. […] Human dermal fibroblasts were cultured in a humidified 5% CO2 atmosphere in DMEM (Invitrogen) supplemented with 10% (v/v) fetal calf serum (Invitrogen), and passaged 1 in 10 every 3-4 days. Unless stated otherwise all other reagents were purchased from Sigma.
# Where stated samples were incubated in 2% Tween-20 for 10 min at 70° C. then washed with PBS. Where stated non-specific cell binding was prevented with incubation in 10 mg/ml heat denatured (80° C./10 min) BSA for 1 hour at room temperature. Confluent 75 cm^2 flasks of cells were harvested by trypsinization, and the cell density adjusted to 5×10^5 cells/ml in serum free DMEM. The cells were added to the samples for 60 min at 37° C., 5% CO2 then non-adherent cells were removed with 2×1 PBS washes. Adherent cells were fixed with the addition of 5% glutaraldehyde (w/v) in PBS for 20 min. The samples were washed 3×PBS, and then the cells were stained with 0.1% (w/v) crystal violet in 0.2M MES pH 5.0 for 1 h at room temperature. After washing extensively with dH2O the samples were transferred to fresh tissue culture plates and the crystal violet was solubilised in 10% (v/v) acetic acid. The absorbance was measured at 570 nm using a plate reader. The absorbance was converted to % cell attachment using the equation of a linear regression fit of standard known cell number controls.
# Samples were peptide coated as for cell attachment analysis then washed 3× with PBS. […] The samples were then autoclaved at 120° C., 100 kPa above atmospheric pressure with steam for 20 min. For slow cooled samples the temperature of the autoclave returned to room temperature over a period of 4 hours. The other samples were removed once the autoclave reached 70° C. and were immediately immersed in room temperature PBS. All samples were washed 3× with PBS prior to measuring cell attachment.
# Human dermal fibroblasts [3] = assay: Cell morphology / spreading and patterned cell distribution by phase contrast microscopy; type: cell-based
# Experimental: PFTE and polystyrene were obtained from Goodfellow. PEEK was sourced from Vitrex. Peptide 36 ([…]) and peptide 36 short ([…]) were synthesized by Auspep. Recombinant human tropoelastin corresponding to amino acid residues 27-724 of GenBank entry AAC98394 (gi 182020) was expressed and purified as previously described. Human dermal fibroblasts were cultured in a humidified 5% CO2 atmosphere in DMEM (Invitrogen) supplemented with 10% (v/v) fetal calf serum (Invitrogen), and passaged 1 in 10 every 3-4 days. Unless stated otherwise all other reagents were purchased from Sigma.
# Samples were contact or shadow masked during PIII treatment by layering 3 mm wide low contact ADH kapton tape (contact mask) (Associated Gaskets, Australia) or a 130 μm stainless steel plate (shadow mask) (Mastercut Technologies, Australia) over the sample during PIII treatment. The masks were removed immediately after treatment.
# Samples were peptide 36 coated, BSA blocked and cell seeded as for cell attachment. After incubation for 90 min the cells were fixed with the addition of 37% (w/v) formaldehyde directly to the cell media to achieve a final concentration of 3% (w/v) for 20 min. For opaque samples the cells were crystal violet stained as for cell attachment. The cell morphology was then observed by phase contrast microscopy.
# [4] = PIII treated polystyrene (FIG. 3A, B)
# [5] = post PIII allylamine vapor treated PTFE (30 min exposure), versus PIII treated PTFE (FIG. 6B)
# [6] = untreated polystyrene (FIG. 3A, B)
# [7] = tape or shadow masked PIII treated polymer (polystyrene, PTFE; FIG. 4)
# [8] = untreated polystyrene (FIG. 3C)
sequence,measurement,setting,value
"ACLGKACG [ΔRKRK peptide 36, peptide 36 where the RKRK motif was deleted]",C-terminal ELISA detection,[1],not capable of detecting
same,cell binding activity,Human dermal fibroblasts [2]; PIII treated PTFE (FIG. 6B),low levels of cell binding activity
same,cell attachment,Human dermal fibroblasts [2]; [4],did not support cell binding
same,cell binding activity,Human dermal fibroblasts [2]; [5],low levels of cell binding activity
same,cell binding activity,Human dermal fibroblasts [2]; untreated PTFE (FIG. 6B),low levels of cell binding activity
same,cell attachment,Human dermal fibroblasts [2]; [6],did not support cell binding
same,cell spreading,Human dermal fibroblasts [3]; PIII treated polystyrene (FIG. 3C),did not elicit cell spreading
same,patterned cell distribution,Human dermal fibroblasts [3]; [7],absence of cell attachment and spreading
same,cell spreading,Human dermal fibroblasts [3]; [8],did not elicit cell spreading
ACLGKACGRKRK [peptide 36],C-terminal ELISA detection of RKRK exposure,"[1]; PIII treated polystyrene, association buffers with pH up to 8 (FIG. 8B)",low levels of peptide 36 RKRK exposure
same,C-terminal ELISA detection of RKRK exposure,"[1]; PIII treated polystyrene, coating concentrations up to 50 μM, 10 mM PO4, 150 mM NaCl, pH 7.4 (FIG. 8A)",little RKRK-dependent antibody detection
same,C-terminal ELISA detection of RKRK exposure,"[1]; PIII treated polystyrene, pH 10 association buffer, compared with untreated polystyrene (FIG. 8B)",not statistically different to those obtained on untreated polystyrene
same,C-terminal ELISA detection,[1],detected
same,C-terminal ELISA detection of RKRK exposure,"[1]; untreated polystyrene, 50 μM peptide, association buffer of increasing pH (FIG. 8B)",detected peptide 36 across the entire range of pH
same,C-terminal ELISA detection of RKRK exposure,"[1]; untreated polystyrene, 10 mM PO4, 150 mM NaCl, pH 7.4, increase up to 10 μM coating, none further at 50 μM (FIG. 8A)",detected peptide 36 bound to the surface in a coating concentration dependent manner
same,% cell attachment,Human dermal fibroblasts [2]; 800 second PIII treated PTFE,4.3±1.8%
same,cell binding activity,Human dermal fibroblasts [2]; PIII treated PTFE (FIG. 6B),low levels
same,cell binding activity,"Human dermal fibroblasts [2]; PIII treated PTFE and PEEK, pH 6 association buffer (FIG. 7C, D)",low levels of cell binding activity
same,cell binding activity,"Human dermal fibroblasts [2]; PIII treated PTFE and PEEK, pH 10 association buffer (FIG. 7C, D)",high levels of cell binding activity
same,cell binding activity after dry autoclaving,Human dermal fibroblasts [2]; PIII treated PTFE,not cell adhesive
same,cell binding activity after heating,"Human dermal fibroblasts [2]; PIII treated PTFE, incubations of 70° C. and above (FIG. 9)",baseline levels of cell binding
same,cell binding activity after liquid autoclaving,"Human dermal fibroblasts [2]; PIII treated PTFE, pH 6, 150 mM NaCl autoclave liquid (FIG. 10A)",reduced to background levels
same,cell binding activity after liquid autoclaving,"Human dermal fibroblasts [2]; PIII treated PTFE, pH 10, 0 mM NaCl autoclave liquid, gradual cooling to room temperature (FIG. 10C)",comparable peptide 36-cell binding activity to the no-autoclave control
same,cell binding activity after liquid autoclaving,"Human dermal fibroblasts [2]; PIII treated PTFE, pH 10, 0 mM NaCl autoclave liquid, rapid cooling (FIG. 10B)",partial peptide 36-cell binding activity was retained
same,cell attachment,Human dermal fibroblasts [2]; [4],not cell adhesive
same,cell binding activity,"Human dermal fibroblasts [2]; PIII treated polystyrene, association buffer pH 10, 150 mM NaCl (FIG. 7B)",maximal cell binding activity
same,cell binding activity,"Human dermal fibroblasts [2]; PIII treated polystyrene, association buffers of up to pH 8, 150 mM NaCl (FIG. 7B)",low levels of cell biding activity
same,maximal % cell attachment,Human dermal fibroblasts [2]; PIII treated polystyrene,5.1±0.5%
same,cell binding activity,"Human dermal fibroblasts [2]; PIII treated surface, 150 mM NaCl association buffer, pH 7.4 (FIG. 7A)",background levels of binding
same,cell binding activity,"Human dermal fibroblasts [2]; PIII treated surface, low ionic strength association buffer, pH 7.4 (FIG. 7A)",high levels of peptide 36-cell binding activity
same,peptide dependent cell attachment,"Human dermal fibroblasts [2]; PTFE, 160 seconds of N2 plasma treatment",background levels
same,% cell attachment,"Human dermal fibroblasts [2]; PTFE, N2 plasma treatments up to 20 seconds before coating",99.3-106.9%
same,cell binding activity,Human dermal fibroblasts [2]; [5],far greater levels of cell binding activity
same,cell binding activity,Human dermal fibroblasts [2]; untreated PTFE (FIG. 6B),high levels of cell binding
same,cell binding activity after dry autoclaving,Human dermal fibroblasts [2]; untreated PTFE,retained
same,cell binding activity after heating,"Human dermal fibroblasts [2]; untreated PTFE, heated above 40° C. (FIG. 9)",not altered
same,cell binding activity after liquid autoclaving,"Human dermal fibroblasts [2]; untreated PTFE, regardless of the liquid buffer conditions (FIG. 10)",lost
same,cell binding activity after heating,"Human dermal fibroblasts [2]; untreated and PIII treated PTFE, heated 10 min up to 40° C. in pH 7.4, 150 mM NaCl (FIG. 9)",remained cell adhesive
same,cell binding activity without autoclaving,"Human dermal fibroblasts [2]; untreated and PIII treated PTFE, coated in pH 10, 0 mM NaCl buffer (FIG. 10)",cell adhesive on both untreated and PIII treated PTFE
same,cell attachment,Human dermal fibroblasts [2]; [6],high levels of cell adhesion
same,cell attachment after Tween-20 washing,"Human dermal fibroblasts [2]; untreated polystyrene, Tween-20 washed",background levels
same,cell binding activity,"Human dermal fibroblasts [2]; untreated polystyrene, 50 μM peptide, 10 mM PO4 pH 7.4, independent of NaCl content of association buffer (FIG. 7A)",high levels of cell-binding activity
same,maximal % cell attachment,Human dermal fibroblasts [2]; untreated polystyrene,98.6±12.5%
same,cell binding activity,"Human dermal fibroblasts [2]; untreated polystyrene, insensitive to pH of association buffer, 150 mM NaCl (FIG. 7B)",high levels of cell binding activity
same,patterned cell distribution,"Human dermal fibroblasts [3]; tape masked PIII treated PTFE, association buffer pH 7.4, 150 mM NaCl (FIG. 11)",retained selectively by peptide 36 on the untreated regions
same,patterned cell distribution,"Human dermal fibroblasts [3]; tape masked PIII treated PTFE, association buffer pH 10, 0 mM NaCl (FIG. 11)",cell binding on both the untreated and PIII treated sections
same,patterned cell distribution,"Human dermal fibroblasts [3]; tape masked PIII treated PTFE, washed with 2% Tween-20 or 5% SDS in pH 10, 0 mM NaCl at 70° C., gradual cooling (FIG. 11)",cell attachment exclusively in the PIII treated regions
same,patterned cell distribution,Human dermal fibroblasts [3]; [7],clearly restricted to the untreated regions
same,cell spreading after Tween-20 washing,"Human dermal fibroblasts [3]; untreated polymer, Tween-20 washed",removed peptide 36 dependent cell spreading activity
same,cell spreading,Human dermal fibroblasts [3]; [8],phase dark and flattened
